Literature values in patent EP3599609A1, “SYSTEM AND METHOD FOR CLEANING NOISY GENETIC DATA AND USING DATA TO MAKE PREDICTIONS” (Natera, Inc., priority 2005, dated 2007).

Conditions: colon cancer patients treated with irinotecan

For `CCc1c2c(nc3ccc(OC(=O)N4CCC(N5CCCCC5)CC4)cc13)-c1cc3c(c(=O)n1C2)COC(=O)[C@]3(O)CC` [irinotecan], the “severe diarrhea, patients affected” value is listed as 31% and the “severe neutropenia, patients affected” value is listed as 28%.
